From ChEMBL document CHEMBL5360525, “Design, synthesis and anti-tumor efficacy of novel phenyl thiazole/triazole derivatives as selective TrkA inhibitors” (Bioorg Med Chem, 2022)
Active and inactive are the calls of the source. No cut-off for these calls is given here.

What follows are molecules tested on KM12 (assay: Antiproliferative activity against human KM12 cells assessed as reduction in cell viability for 72 hrs by MTT assay). Details: KM12, 72 h.

Which IC50 does the source give for O=C(Nc1cccc(-n2cc(CN3CCS(=O)(=O)CC3)nn2)c1)c1cc(F)cc(F)c1 here?
The IC50 was 12.2 µM.

Which IC50 does the source give for CN1CCN(c2nc(-c3cccc(NC(=O)c4cc(F)cc(F)c4)c3)cs2)CC1 here?
Its IC50 is 14 µM.

With O=C(Nc1cccc(-n2cc(CN3CCCC3)nn2)c1)c1cc(F)cc(F)c1 as the molecule, how does the IC50 read?
Its IC50 is 8.02 µM.

How did the IC50 turn out when O=C(Nc1cccc(-c2csc(NCCO)n2)c1)c1cc(F)cc(F)c1 was run?
The IC50 was 17.1 µM.

CN1CCN(c2ccc(NCc3cn(-c4cccc(CNc5cc(F)cc(F)c5)c4)nn3)cc2C(=O)N2CCCCC2)CC1 was tested. Which IC50 did it give?
Its IC50 is 0.76 µM.

With CN(C)c1nc(-c2cccc(NC(=O)c3cc(F)cc(F)c3)c2)cs1 as the molecule, how does the IC50 read?
Its IC50 is 28.8 µM.

How did the IC50 turn out when O=C(Nc1cccc(-n2cc(CN3CCSCC3)nn2)c1)c1cc(F)cc(F)c1 was run?
The IC50 was 12.3 µM.

How did the IC50 turn out when CN(C)Cc1cn(-c2cccc(NC(=O)c3cc(F)cc(F)c3)c2)nn1 was run?
Its IC50 is 17.5 µM.

Which IC50 does the source give for O=C(Nc1cccc(-c2csc(N3CCCC3)n2)c1)c1cc(F)cc(F)c1 here?
Its IC50 is 16.5 µM.

For CN1CCN(c2ccc(NCc3cn(-c4cccc(NCc5cc(F)cc(F)c5)c4)nn3)cc2C(=O)N2CCOCC2)CC1, which IC50 is on record?
The IC50 was 0.63 µM.

With O=C(Nc1cccc(-c2csc(N3CCOCC3)n2)c1)c1cc(F)cc(F)c1 as the molecule, how does the IC50 read?
Its IC50 is 9.63 µM.

Which IC50 does the source give for O=C(Nc1cccc(-c2csc(N3CCC(O)CC3)n2)c1)c1cc(F)cc(F)c1 here?
Its IC50 is 7.57 µM.

Which IC50 does the source give for CN1CCN(c2ccc(NCc3cn(-c4cccc(CNc5cc(F)cc(F)c5)c4)nn3)cc2C(=O)N2CCCC2)CC1 here?
The IC50 was 0.95 µM.

How did the IC50 turn out when O=C(Nc1cccc(-c2csc(N3CCC[C@H]3CO)n2)c1)c1cc(F)cc(F)c1 was run?
Its IC50 is 8.16 µM.

How did the IC50 turn out when O=C(Nc1cccc(-n2cc(CNC3CC3)nn2)c1)c1cc(F)cc(F)c1 was run?
The IC50 was 5.21 µM.

For CN1CCN(c2ccc(NCc3cn(-c4cccc(CNc5cc(F)cc(F)c5)c4)nn3)cc2C(=O)N(C)C)CC1, which IC50 is on record?
The IC50 was 1.71 µM.

For O=C(Nc1cccc(-c2csc(N3CCN(CCO)CC3)n2)c1)c1cc(F)cc(F)c1, which IC50 is on record?
The IC50 was 7.25 µM.

With O=C(Nc1cccc(-n2cc(CNC3CCCC3)nn2)c1)c1cc(F)cc(F)c1 as the molecule, how does the IC50 read?
The IC50 was 3.83 µM.

These molecules were tested on A549 (assay: Antiproliferative activity against human A549 cells assessed as reduction in cell viability for 72 hrs by MTT assay). Details: A549, 72 h.

Which IC50 does the source give for O=C(Nc1cccc(-n2cc(CN3CCS(=O)(=O)CC3)nn2)c1)c1cc(F)cc(F)c1 here?
The IC50 was greater than 10 µM.

For CN1CCN(c2nc(-c3cccc(NC(=O)c4cc(F)cc(F)c4)c3)cs2)CC1, which IC50 is on record?
Its IC50 is 0.72 µM.

With O=C(Nc1cccc(-n2cc(CN3CCCC3)nn2)c1)c1cc(F)cc(F)c1 as the molecule, how does the IC50 read?
The IC50 was greater than 10 µM.

How did the IC50 turn out when O=C(Nc1cccc(-c2csc(NCCO)n2)c1)c1cc(F)cc(F)c1 was run?
The IC50 was 0.55 µM.

How did the IC50 turn out when CN1CCN(c2ccc(NCc3cn(-c4cccc(CNc5cc(F)cc(F)c5)c4)nn3)cc2C(=O)N2CCCCC2)CC1 was run?
Its IC50 is greater than 10 µM.

Which IC50 does the source give for CN(C)c1nc(-c2cccc(NC(=O)c3cc(F)cc(F)c3)c2)cs1 here?
Its IC50 is 1.21 µM.

How did the IC50 turn out when O=C(Nc1cccc(-n2cc(CN3CCSCC3)nn2)c1)c1cc(F)cc(F)c1 was run?
The IC50 was greater than 10 µM.

With CN(C)Cc1cn(-c2cccc(NC(=O)c3cc(F)cc(F)c3)c2)nn1 as the molecule, how does the IC50 read?
Its IC50 is greater than 10 µM.

For O=C(Nc1cccc(-c2csc(N3CCCC3)n2)c1)c1cc(F)cc(F)c1, which IC50 is on record?
Its IC50 is 0.17 µM.

How did the IC50 turn out when CN1CCN(c2ccc(NCc3cn(-c4cccc(NCc5cc(F)cc(F)c5)c4)nn3)cc2C(=O)N2CCOCC2)CC1 was run?
Its IC50 is greater than 10 µM.

O=C(Nc1cccc(-c2csc(N3CCOCC3)n2)c1)c1cc(F)cc(F)c1 was tested. Which IC50 did it give?
The IC50 was 0.27 µM.

How did the IC50 turn out when O=C(Nc1cccc(-c2csc(N3CCC(O)CC3)n2)c1)c1cc(F)cc(F)c1 was run?
Its IC50 is 0.21 µM.

For CN1CCN(c2ccc(NCc3cn(-c4cccc(CNc5cc(F)cc(F)c5)c4)nn3)cc2C(=O)N2CCCC2)CC1, which IC50 is on record?
The IC50 was greater than 10 µM.

For O=C(Nc1cccc(-c2csc(N3CCC[C@H]3CO)n2)c1)c1cc(F)cc(F)c1, which IC50 is on record?
The IC50 was 0.39 µM.

O=C(Nc1cccc(-n2cc(CNC3CC3)nn2)c1)c1cc(F)cc(F)c1 was tested. Which IC50 did it give?
The IC50 was greater than 10 µM.

CN1CCN(c2ccc(NCc3cn(-c4cccc(CNc5cc(F)cc(F)c5)c4)nn3)cc2C(=O)N(C)C)CC1 was tested. Which IC50 did it give?
Its IC50 is greater than 10 µM.

How did the IC50 turn out when O=C(Nc1cccc(-c2csc(N3CCN(CCO)CC3)n2)c1)c1cc(F)cc(F)c1 was run?
The IC50 was 0.51 µM.

How did the IC50 turn out when O=C(Nc1cccc(-n2cc(CNC3CCCC3)nn2)c1)c1cc(F)cc(F)c1 was run?
The IC50 was greater than 10 µM.

The molecules below were run against High affinity nerve growth factor receptor (Homo sapiens, UniProt P04629) (assay: Inhibition of TRKA (unknown origin) incubated for 1 hr by mobility shift assay). Details: not given.
High affinity nerve growth factor receptor, sequence (P04629 whole entry): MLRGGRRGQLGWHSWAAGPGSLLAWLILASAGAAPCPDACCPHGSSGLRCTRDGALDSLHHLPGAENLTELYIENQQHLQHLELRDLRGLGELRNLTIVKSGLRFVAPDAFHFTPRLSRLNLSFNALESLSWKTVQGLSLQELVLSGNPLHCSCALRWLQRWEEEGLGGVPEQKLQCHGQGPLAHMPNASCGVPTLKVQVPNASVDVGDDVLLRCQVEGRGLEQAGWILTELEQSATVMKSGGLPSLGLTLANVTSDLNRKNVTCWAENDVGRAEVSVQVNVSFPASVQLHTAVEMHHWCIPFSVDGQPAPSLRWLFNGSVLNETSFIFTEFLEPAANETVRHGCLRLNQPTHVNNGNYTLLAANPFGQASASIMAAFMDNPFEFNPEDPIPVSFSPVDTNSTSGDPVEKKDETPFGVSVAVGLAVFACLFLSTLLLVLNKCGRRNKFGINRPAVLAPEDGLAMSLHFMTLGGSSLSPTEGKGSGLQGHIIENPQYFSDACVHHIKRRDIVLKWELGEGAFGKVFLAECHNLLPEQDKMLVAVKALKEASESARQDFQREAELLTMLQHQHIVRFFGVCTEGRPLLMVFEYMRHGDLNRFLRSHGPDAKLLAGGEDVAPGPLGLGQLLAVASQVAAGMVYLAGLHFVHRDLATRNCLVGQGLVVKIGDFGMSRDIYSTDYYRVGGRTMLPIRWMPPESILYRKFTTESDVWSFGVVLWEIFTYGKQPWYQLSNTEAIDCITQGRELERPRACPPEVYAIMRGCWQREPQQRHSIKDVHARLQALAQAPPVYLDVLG

How did the IC50 turn out when O=C(Nc1cccc(-c2csc(N3CCN(CCO)CC3)n2)c1)c1cc(F)cc(F)c1 was run?
Its IC50 is greater than 0.1 µM.

The molecules below were run against BDNF/NT-3 growth factors receptor (Homo sapiens, UniProt Q16620) (assay: Inhibition of TRKB (unknown origin) incubated for 1 hr by mobility shift assay). Details: not given.
BDNF/NT-3 growth factors receptor, sequence (Q16620 whole entry): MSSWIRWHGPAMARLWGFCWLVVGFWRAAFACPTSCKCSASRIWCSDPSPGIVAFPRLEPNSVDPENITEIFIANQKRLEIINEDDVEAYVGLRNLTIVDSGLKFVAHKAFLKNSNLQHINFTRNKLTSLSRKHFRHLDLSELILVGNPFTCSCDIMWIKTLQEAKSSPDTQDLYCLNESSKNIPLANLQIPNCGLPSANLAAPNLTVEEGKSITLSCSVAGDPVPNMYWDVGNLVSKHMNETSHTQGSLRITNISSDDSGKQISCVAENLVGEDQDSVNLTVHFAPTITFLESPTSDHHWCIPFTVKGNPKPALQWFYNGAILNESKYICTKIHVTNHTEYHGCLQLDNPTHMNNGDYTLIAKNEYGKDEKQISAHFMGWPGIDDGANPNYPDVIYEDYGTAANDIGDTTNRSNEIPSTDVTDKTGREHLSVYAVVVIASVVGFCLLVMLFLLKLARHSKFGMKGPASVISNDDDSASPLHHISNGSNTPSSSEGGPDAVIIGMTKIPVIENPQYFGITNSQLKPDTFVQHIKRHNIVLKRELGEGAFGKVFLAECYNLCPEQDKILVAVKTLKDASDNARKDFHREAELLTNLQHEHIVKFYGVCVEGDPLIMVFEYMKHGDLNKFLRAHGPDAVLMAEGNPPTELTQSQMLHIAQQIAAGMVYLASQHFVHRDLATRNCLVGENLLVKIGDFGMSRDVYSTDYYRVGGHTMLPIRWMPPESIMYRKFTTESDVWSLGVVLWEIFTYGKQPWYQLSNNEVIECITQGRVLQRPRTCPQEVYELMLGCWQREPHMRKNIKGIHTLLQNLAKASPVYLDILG

For O=C(Nc1cccc(-c2csc(N3CCN(CCO)CC3)n2)c1)c1cc(F)cc(F)c1, which IC50 is on record?
The IC50 was greater than 0.1 µM.

These molecules were tested against NT-3 growth factor receptor (Homo sapiens, UniProt Q16288) (assay: Inhibition of TRKC (unknown origin) incubated for 1 hr by mobility shift assay). Details: not given.
NT-3 growth factor receptor, sequence (Q16288 whole entry): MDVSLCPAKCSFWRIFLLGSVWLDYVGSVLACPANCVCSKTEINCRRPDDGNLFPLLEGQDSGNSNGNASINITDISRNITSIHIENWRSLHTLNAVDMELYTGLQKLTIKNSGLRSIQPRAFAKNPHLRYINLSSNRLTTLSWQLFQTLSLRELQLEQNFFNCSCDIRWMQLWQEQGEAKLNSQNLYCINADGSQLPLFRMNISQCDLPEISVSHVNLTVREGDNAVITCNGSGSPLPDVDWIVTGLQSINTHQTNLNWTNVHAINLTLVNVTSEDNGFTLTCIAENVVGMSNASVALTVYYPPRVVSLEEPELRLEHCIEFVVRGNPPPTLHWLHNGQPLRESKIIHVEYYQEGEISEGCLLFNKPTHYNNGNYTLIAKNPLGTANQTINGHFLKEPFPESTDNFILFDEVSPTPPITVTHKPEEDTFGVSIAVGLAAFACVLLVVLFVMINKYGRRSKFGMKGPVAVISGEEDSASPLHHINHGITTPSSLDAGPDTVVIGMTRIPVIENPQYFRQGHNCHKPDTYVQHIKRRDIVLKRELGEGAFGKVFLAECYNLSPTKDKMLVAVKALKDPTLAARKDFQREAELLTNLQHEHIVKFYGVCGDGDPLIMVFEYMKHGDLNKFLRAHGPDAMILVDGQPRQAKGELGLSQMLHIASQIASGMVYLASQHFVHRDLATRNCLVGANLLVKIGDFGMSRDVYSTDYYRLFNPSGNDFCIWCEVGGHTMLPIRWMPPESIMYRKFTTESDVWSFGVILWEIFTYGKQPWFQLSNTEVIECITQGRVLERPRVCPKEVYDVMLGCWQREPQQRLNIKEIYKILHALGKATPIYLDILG

Which IC50 does the source give for O=C(Nc1cccc(-c2csc(N3CCN(CCO)CC3)n2)c1)c1cc(F)cc(F)c1 here?
Its IC50 is greater than 0.1 µM.

The molecules below were run on KM12 (assay: Inhibition of colony formation in human KM12 cells assessed as decrease in colony count at 75 nM incubated for 72 hrs by crystal violet staining based assay). Details: not given.
Assay type: functional, cell-based

Which inhibition does the source give for CN1CCN(c2ccc(C(=O)Nc3n[nH]c4ccc(Cc5cc(F)cc(F)c5)cc34)c(NC3CCOCC3)c2)CC1 here?
The inhibition was “Active”.
